Data from patent publication US11446281B2, “Anti-inflammatory composition comprising acylhydrazone derivative” (KOREA RESEARCH INSTITUTE OF BIOSCIENCE AND BIOTECHNOLOGY, priority 2018, dated 2022).

How the values were obtained:
[1] = tested on: IL-4, IL-13 and IL-2 mRNA; assay: qPCR of inflammatory cytokine mRNA in back skin tissue of dermatitis-induced mice; assay type: in vivo, HR-1 (hairless) mouse; conditions: FIG. 2A to 2C; for inflammatory cytokine expression compared with Cyclosporine A group: comparison with test group treated with Cyclosporine A; for expression level of the inflammatory cytokine (IL-4, IL-13, IL-2 mRNA) in skin tissue: vs positive control treated with only oxazolone, qPCR
Description: Inflammatory cytokines most associated with development of dermatitis such as atopic dermatitis are known as IL-4 and IL-13 which are secreted primarily from Th2 T cells. To further identify the anti-inflammatory effect of the acylhydrazone derivative compounds in mice in which dermatitis is induced by oxazolone. A mRNA level of IL-2 as secreted from Th2 T cells and mRNA levels of IL-4 and IL-13 as the cytokines most closely related to the development of dermatitis in the inflammatory tissue were quantified.
Specifically, a skin tissue was collected from the dermatitis-induced mice produced in Example 1 and crushed using a tissue disruptor. The crushed tissue powder was dissolved in a solution of Trizol reagent (Sigma company), and RNA was extracted therefrom using an RNeasy mini kit (Qiagen company). The extracted RNA was reverse transcribed into cDNA using an ImProm-II™ Reverse Transcription kit (Promega company). Then, using a CFX96™ Real-Time PCR Detection System (Bio-Rad company), levels of the cytokines present in the skin tissue was measured based on a qPCR (quantitative PCR) method.

[2] = tested on: K14 and K1 mRNA; assay: qPCR of epidermal hyperplasia markers in ear skin tissue of dermatitis-induced mice; assay type: in vivo, mouse; conditions: FIG. 8A and 8B
Description: When dermatitis is induced, pathological symptoms such as epidermal hyperplasia which thickens the skin are induced.

[3] = tested on: K14 (Keratin 14), K1 (Keratin 1), FLG (Filaggrin gene) mRNA; assay: qPCR of epidermal hyperplasia markers in back skin tissue of dermatitis-induced mice; assay type: in vivo, HR-1 (hairless) mouse; conditions: FIG. 3B to 3D
Description: When dermatitis is induced, a pathological symptom such as epidermal hyperplasia which thickens the skin is induced.

[4] = tested on: mouse model having dermatitis induced by oxazolone (ear); assay: Visual identification of dermatitis inhibition, mice with oxazolone-induced dermatitis in ear; assay type: in vivo; conditions: 20 μl at 500 nM, total 5 times, 30 minutes after oxazolone, FIG. 4
Experimental: Specifically, 150 μl of 3% concentration of oxazolone was applied to an abdominal skin of a 6-week-old mouse to induce an immune response. 20 μl of the same compound diluted to 0.5% concentration was applied to the mouse's ear, total 5 times a day to induce an inflammatory reaction. Thereafter, at 30 minutes after the oxazolone application, 20 μl of each of the acylhydrazone derivative compounds was applied thereto at a concentration of 500 nM and total 5 times.
Moreover, the negative control treated only with ethanol as a solvent and the positive control treated only with oxazolone were reflected in the experiment. The number of mice in each test group was maintained at 10 or more, and the experiment was repeated twice.

[5] = tested on: ear skin tissue of dermatitis-induced mice; assay: Histopathological analysis (Hematoxylin and Eosin) of ear skin tissue; assay type: in vivo, mouse; conditions: H&E staining, FIG. 5
Description: For pathological observation of the skin after completion of the application experiment, an ear skin tissue of each mouse was collected and stained with Hematoxylin and Eosin.

[6] = tested on: phosphorylation of p65 (RelA), NF-κB signaling pathway; assay: Western blot of phosphorylated p65 in RAW macrophage cell line (NF-κB signaling pathway); assay type: cell-based, mice; conditions: RAW cells, with NF-κB inducing factors (tumor necrosis factor-α, lipopolysaccharide, or the like), 12 to 24 hours; Western blotting; FIG. 9
Experimental: To further identify the mechanism of action involved in the anti-inflammatory effect by the acylhydrazone derivative compound, RAW cell lines as mice-derived macrophage immune cell lines were incubated. We observed the effect of the compound according to the present disclosure on NF-κB (nuclear factor kappa-light-chain-enhancer of activated B cells) signaling pathway involved in the production of inflammatory cytokines. The NF-κB signaling pathway is involved in inflammatory reactions. In particular, it is known that when phosphorylation of p65 (RelA) is induced, phosphorylated p65 moves to the nucleus of immune cells and induces an expression of cytokines that cause inflammatory reactions.
Specifically, after incubating a predetermined amount of RAW cells (5×10^5 to 10×10^5 cells/well for a 6-well plate) in DMEM medium (containing 10% fetal calf serum), WCI-1004, WCI-1015, and WCI-1031 compounds together with factors (tumor necrosis factor-α, lipopolysaccharide, or the like) inducing the NF-κB signal transduction were applied thereto for 12 to 24 hours. A proteolytic inhibitor and a dephosphorylation inhibitor was added to RIPA lysis and extraction buffer (Thermofisher company). Protein was extracted from the RAW cells. The Western blotting process used a method commonly used in the technical field to which the present disclosure belongs, and an antibody specific to phosphorylated p65 employed a product from Cell Signaling Technology company.

[7] = tested on: mouse model having dermatitis induced by oxazolone (back skin); assay: Visual identification of dermatitis inhibition, mice with oxazolone-induced dermatitis on back; assay type: in vivo, HR-1 (hairless) mouse; conditions: 150 μl at 500 nM applied 5 times a week, total 19 times, FIG. 1
Experimental: Specifically, 150 μl of 5% oxazolone (4-ethoxymethylene-2-phenyl-2-oxazolin-5-one) was applied to a back skin of a 6-week-old HR-1 (hairless) mouse, and then 150 μl of oxazolone (4-ethoxymethylene-2-phenyl-2-oxazolin-5-one) diluted into 0.1% was applied thereto 3 times a week, 11 times in total. Thus, the back skin inflammatory reaction was induced. Thereafter, 150 μl of the acylhydrazone derivative compound at a concentration of 500 nM was applied thereto 5 times a week, a total of 19 times. […] A negative control treated with only ethanol as a solvent and a positive control treated with only oxazolone were reflected in the test. The number of mice in each test group was maintained at 10 or more, and the experiment was repeated twice.

[8] = tested on: IL-4, IL-13 and IL-2 mRNA; assay: qPCR of inflammatory cytokine mRNA in ear skin tissue of dermatitis-induced mice; assay type: in vivo, mouse; conditions: FIG. 6A to 6C
Description: Inflammatory cytokines most associated with the development of dermatitis, such as atopic dermatitis are known as IL-4 and IL-13 which are secreted primarily from Th2 T cells. In order to further identify the anti-inflammatory effect of the acylhydrazone derivative compound in mice with dermatitis induced by oxazolone in Example 4, an ear skin tissue was collected to quantify the mRNA levels of IL-2 secreted from Th2 T cells, along with those of IL-4 and IL-13.
Specifically, ear skin tissues were collected from dermatitis-induced mice prepared in Example 4 and crushed using a tissue disruptor. The crushed tissue powder was dissolved in a solution of Trizol reagent (Sigma company), and RNA was extracted using an RNeasy mini kit (Qiagen company). After reverse transcription of the extracted RNA with a cDNA using ImProm-II™ Reverse Transcription kit (Promega company), a level of cytokines present in a skin tissue was measured using a CFX96 Real-Time PCR Detection System (Bio-Rad company) via a qPCR method.

Structure (SMILES)	inflammatory cytokine expression compared with Cyclosporine A group [1]	expression level of the inflammatory cytokine (IL-4, IL-13, IL-2 mRNA) in skin tissue [1]	expression levels of K14 and K1 (epithelial hyperplasia) [2]	mRNA expression levels of K14, K1 and FLG (epithelial hyperplasia) [3]	skin condition (visual), skin inflammatory reaction [4]	entire thickness of the skin [5]	thickness of the epithelium [5]	phosphorylation of p65 (RelA) [6]	skin condition (visual), skin inflammatory response [7]	level of cytokine expression (IL-4, IL-13, IL-2 mRNA) in ear skin tissue [8]
COC(=O)Cn1c(C)c(/C=N/NC(=O)c2cc3c(ccc4ccccc43)o2)c2ccccc21 [WCI-1031, methyl(E)-2-(2-methyl-3-((2-(naphtho[2,1-b]furan-2-carbonyl)hydrazono)methyl)-1H-indole-1-yl)acetate]	lower levels of inflammatory cytokine expression than that in the skin tissue of the test group treated with Cyclosporine A	significantly reduced	restored to a normal level	restored to normal levels	a skin condition very similar to that of the negative control	reduced to a thickness very similar to that of the negative control	reduced to a thickness very similar to that of the negative control	effectively suppressed	skin conditions very similar to those of the negative control	50 % of the cytokine expression level of the positive control
Cc1c(/C=N/NC(=O)c2cc3c(ccc4ccccc43)o2)c2ccccc2n1C [WCI-1015]	lower levels of inflammatory cytokine expression than that in the skin tissue of the test group treated with Cyclosporine A	significantly reduced	restored to a normal level	restored to normal levels	a skin condition very similar to that of the negative control	reduced to a thickness very similar to that of the negative control	reduced to a thickness very similar to that of the negative control	effectively suppressed	skin conditions very similar to those of the negative control	50 % of the cytokine expression level of the positive control
CCOC(=O)Cn1c(C)c(/C=N/NC(=O)c2cc3c(ccc4ccccc43)o2)c2ccccc21 [WCI-1004, ethyl(2-methyl-3(E)-{[(naphtho[2,1-b]furan-2-ylcarbonyl)hydrazono]methyl}-1H-indole-1-yl)acetate]	lower levels of inflammatory cytokine expression than that in the skin tissue of the test group treated with Cyclosporine A	significantly reduced	restored to a normal level	restored to normal levels	a skin condition very similar to that of the negative control	reduced to a thickness very similar to that of the negative control	reduced to a thickness very similar to that of the negative control	effectively suppressed	skin conditions very similar to those of the negative control	50 % of the cytokine expression level of the positive control
